Measured values as given in US9751850B2, “TRPA1 antagonists” (AbbVie Inc., priority 2008, dated 2017).

Molecular target: Human TRPA1 (Homo sapiens (Human), UniProt O75762)
Test: FLIPR based intracellular Ca2+ assay and membrane potential assay, AITC-activated TRPA1
Assay type: cell-based
Conditions: hTRPA1 transiently expressed in HEK293-F cells, AITC as agonist
Description: Molecular biology and transient expression were performed as described in Chen, J. et al., Journal of Biomolecular Screening 2007, 12, 61-69. Briefly, TRPA1 full length cDNA was amplified from human dorsal root ganglia total RNA (BD Bioscience Clontech, Palo Alto, Calif., USA) and was cloned into pcDNA3.1/V5-His Topo vector (Invitrogen, Carlsbad, Calif.). Large scale transient transfection was performed using the FreeStyle™ 293 Expression System as recommended by the manufacturer (Invitrogen). HEK293-F cells were grown in suspension in flasks (cell volume 30 ml, to 1 liter) or in a Wave Bioreactor (Wave Biotech, Somerset, N.J. (6 liters). To support high density, suspension culture and transfection, cells were cultured in Free Style 293 media, an optimized, serum free formulation. 293fectin™ (Invitrogen) was used as transfection reagent. In a transfection of 3×10^7 cells (30 mL volume), 30 μg of plasmid DNA and 40 μL 293 fectin were used. For a larger volume transfection, each reagent was scaled up proportionally. Two days post-transfection, cells were harvested by centrifugation (1000×g, 5 minutes) and resuspended to a density of 1.5×10^7 cells/mL in freezing medium (Freestyle media/10% serum/10% DMSO). Cells were transferred into cryovials in 2 mL aliquots, and these vials were placed in Nalgene Mr. Frosty slow-freeze devices (Sigma-Aldrich, St. Louis, Mo.) at −80° C. As needed, vials were removed from −80° C. and quickly thawed in a 37° C. water bath. Cells were aseptically transferred into conical tubes containing Freestyle media (10 mL/vial). After centrifugation at 1,000×g for 3-5 minutes, medium was removed by aspiration and cells were resuspended in Freestyle medium at desired densities (typically 1×10^6 cells/mL). Re-suspended cells were seeded into black-walled clear-bottom 96-well Biocoat™ poly-D-lysine assay plated (BD Biosciences, Bedford, Mass.) (10^5 cells/well) and incubated overnight at 37° C. under a humidified 5% CO2 atmosphere.
Ca^2+ influx was measured using a FLIPR calcium assay kit (R8033; Molecular Devices, Sunnyvale, Calif.). The Ca^2+ indicator dye was dissolved in Hanks' balanced salt solution supplemented with 20 mM HEPES buffer (HBSS/HEPES) according to the manufacturer instructions. Prior to start of the assay, the medium was removed by aspiration, and cells were loaded with 100 μL Ca^2+ dye for 2 to 3 hours at room temperature. AITC (allyl isothiocyanate) was used to activate and open the channels. (4×) solutions of the test compounds were prepared in HBSS/HEPES, and 50 μL were added to the cells at a delivery rate of 10 μL/sec. Changes in fluorescene were measured over time in a fluorometric imaging plate reader (FLIPR), Molecular Devices). Two additions were made over the course of an experimental run. For agonist experiments, assay buffer was added at the 10 s time point, followed by addition of agonist at the 3 minute 10 sec time point. For antagonist experiments, the antagonist was added at the 10 sec time point, followed by addition of the agonist 3 minutes later. Final assay volume for both the agonist and antagonist experiments was 200 μL. Total length of an experimental run was 6.5 minutes.
Data was analyzed with GraphPad Prism® software (GraphPad Software, San Diego, Calif.), using a four-parameter logistic Hill equation to curve-fit concentration-effect data and derive EC50 or IC50 values. Numerical values are reported as mean±SEM (n=number of experiments). SEM is calculated by dividing the standard deviation by the square root of the sample size […].
Changes in membrane potential were measured in hTRPA1-expressing LSTT cells using a FLIJPR membrane potential assay kit (R8034, Molecular Devices). The procedure for thawing and plating the LSTT cells was identical to the Ca^2+ influx assay (see above). […]

Sequence of Human TRPA1 (O75762 whole entry): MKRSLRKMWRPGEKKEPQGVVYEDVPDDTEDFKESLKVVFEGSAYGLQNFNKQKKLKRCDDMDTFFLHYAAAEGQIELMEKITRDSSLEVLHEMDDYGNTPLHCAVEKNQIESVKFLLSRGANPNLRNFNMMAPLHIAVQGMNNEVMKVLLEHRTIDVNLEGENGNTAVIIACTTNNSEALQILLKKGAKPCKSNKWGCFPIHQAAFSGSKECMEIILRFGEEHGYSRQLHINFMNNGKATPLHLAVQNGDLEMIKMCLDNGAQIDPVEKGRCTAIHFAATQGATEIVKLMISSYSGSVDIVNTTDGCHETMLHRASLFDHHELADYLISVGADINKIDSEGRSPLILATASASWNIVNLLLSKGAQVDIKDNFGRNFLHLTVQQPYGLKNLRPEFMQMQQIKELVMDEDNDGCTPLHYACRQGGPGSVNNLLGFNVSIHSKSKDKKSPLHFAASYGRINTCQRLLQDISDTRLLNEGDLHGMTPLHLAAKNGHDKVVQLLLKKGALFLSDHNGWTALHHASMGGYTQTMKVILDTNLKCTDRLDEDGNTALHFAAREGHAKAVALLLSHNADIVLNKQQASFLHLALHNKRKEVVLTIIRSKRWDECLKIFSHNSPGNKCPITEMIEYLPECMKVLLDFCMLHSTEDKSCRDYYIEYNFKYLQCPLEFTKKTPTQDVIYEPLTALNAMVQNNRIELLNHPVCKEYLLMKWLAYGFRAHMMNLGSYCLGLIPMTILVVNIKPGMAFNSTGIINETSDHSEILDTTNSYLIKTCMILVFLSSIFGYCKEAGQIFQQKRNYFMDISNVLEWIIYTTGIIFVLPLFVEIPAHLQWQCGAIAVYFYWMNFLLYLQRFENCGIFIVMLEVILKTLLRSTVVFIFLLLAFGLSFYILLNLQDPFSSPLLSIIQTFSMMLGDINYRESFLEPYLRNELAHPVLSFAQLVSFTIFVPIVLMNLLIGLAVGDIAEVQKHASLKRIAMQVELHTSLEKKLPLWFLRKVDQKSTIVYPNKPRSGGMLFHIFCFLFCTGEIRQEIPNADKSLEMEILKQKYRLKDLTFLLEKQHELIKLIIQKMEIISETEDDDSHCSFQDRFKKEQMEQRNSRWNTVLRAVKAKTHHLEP

Row | SMILES | IC50
1 | CCC(=N\O)/C(C)=C/c1cccnc1 [Example 5, (1E,3E)-2-methyl-1-pyridin-3-ylpent-1-en-3-one oxime] | 17 µM
2 | CCC(=N\O)/C(C)=C/c1ccc(F)nc1 [Example 1, (1E,3E)-1-(6-fluoropyridin-3-yl)-2-methylpent-1-en-3-one oxime] | 1.25 µM
3 | CCC(=N\O)/C(C)=C/c1ccc(OC)nc1 [Example 3, (1E,3E)-1-(6-methoxypyridin-3-yl)-2-methylpent-1-en-3-one oxime] | 23.4 µM
4 | CCC(=N\O)/C(C)=C/c1cnc2ccccc2c1 [Example 8, (1E,3E)-2-methyl-1-quinolin-3-ylpent-1-en-3-one oxime] | > 100 µM
5 | CCC(=N\O)/C(C)=C/c1cnccc1C [Example 9, (1E,3E)-2-methyl-1-(4-methylpyridin-3-yl)pent-1-en-3-one oxime] | > 100 µM
6 | CCC(=N\O)/C(C)=C/c1ccc(C)nc1 [Example 7, (1E,3E)-2-methyl-1-(6-methylpyridin-3-yl)pent-1-en-3-one oxime] | > 100 µM
7 | CCC(=N\O)/C(C)=C/c1ccncc1 [Example 6, (1E,3E)-2-methyl-1-pyridin-4-ylpent-1-en-3-one oxime] | 8.61 µM
8 | CCC(=N\O)/C(C)=C/c1cncc2ccccc12 [Example 11, (1E,3E)-1-(isoquinolin-4-yl)-2-methylpent-1-en-3-one oxime] | > 100 µM
9 | CCC(=N\O)/C(C)=C/c1ccc(C(F)(F)F)nc1 [Example 10, (1E,3E)-2-methyl-1-[6-(trifluoromethyl)pyridin-3-yl]pent-1-en-3-one oxime] | > 100 µM
10 | CCC(=N\O)/C(C)=C/c1cccs1 [Example 2, (1E,3E)-2-methyl-1-thien-2-ylpent-1-en-3-one oxime] | 11 µM
11 | CCC(=N\O)/C(C)=C/c1ccsc1 [Example 4, (1E,3E)-2-methyl-1-thien-3-ylpent-1-en-3-one oxime] | 1.32 µM
